This assay deals with B6C3F1 mice, intracerebral ependymoblastoma, median survival T/C. Kind of assay: NCI In Vivo Anticancer Drug Screen. Data for tumor model Ependymoblastoma (intracerebral) in B6C3F1 mice. The following applies: endpoint: median survival time, higher = longer survival. The method, then:
The antitumor activity of compounds was measured in mice bearing transplantable tumors. Survival or tumor size were measured and the results are expressed as the measurement made in the treated group (T) divided by the measurement made in the vehicle treated control group (C). The tumor model used in this assay is Ependymoblastoma (intracerebral) in B6C3F1 mice

Where [1] appears, read: dose: 37.5 mg/kg/injection, schedule: Q01DX005 (ip), vehicle: saline with Tween-80.
The mark [2] stands for this setting: dose: 75.0 mg/kg/injection, schedule: Q01DX005 (ip), vehicle: saline with Tween-80.
The mark [3] stands for this setting: dose: 150.0 mg/kg/injection, schedule: Q01DX005 (ip), vehicle: saline with Tween-80.

“And” between values parts separate entries of the source, which are not always exact repeats. Identical values can stand only once. Inconclusive results and toxic doses are left out.

Take `C=CCSc1ncnc2c1ncn2C1OC(CO)C(O)C1O` (stereo not drawn): the T/C is, setting by setting: under setting [1], 98 % of control; under setting [2], 114 % of control; under setting [3], 120 % of control; (dose: 300.0 mg/kg/injection, schedule: Q01DX005 (ip), vehicle: saline with Tween-80) 106 % of control.

Regarding `CCCN(C)C(=O)N(CCCl)N=O`, the T/C is, setting by setting: (dose: 19.4 mg/kg/injection, schedule: Q01DX001 (ip), vehicle: DMSO) 116 % of control; (dose: 31.3 mg/kg/injection, schedule: Q01DX001 (ip), vehicle: saline + alcohol) 320 % of control; (dose: 32.4 mg/kg/injection, schedule: Q01DX001 (ip), vehicle: DMSO) 169 % of control; (dose: 54.0 mg/kg/injection, schedule: Q01DX001 (ip), vehicle: DMSO) 239 % of control; (dose: 62.5 mg/kg/injection, schedule: Q01DX001 (ip), vehicle: saline + alcohol) 324 % of control; (dose: 90.0 mg/kg/injection, schedule: Q01DX001 (ip), vehicle: DMSO) 368 % of control. Further, the T/C (dose: 125.0 mg/kg/injection, schedule: Q01DX001 (ip), vehicle: saline + alcohol) is 110 % of control; the T/C (dose: 150.0 mg/kg/injection, schedule: Q01DX001 (ip), vehicle: DMSO) is 366 % of control; the T/C (dose: 250.0 mg/kg/injection, schedule: Q01DX001 (ip), vehicle: DMSO) was 365 % of control.

Take `O=C(O)CC(NC(=O)CP(=O)(O)O)C(=O)O` (stereo not drawn): the T/C (dose: 1.0 mg/kg/injection, schedule: Q01DX005 (ip), vehicle: saline) was 117 % of control; the T/C (dose: 2.0 mg/kg/injection, schedule: Q01DX005 (ip), vehicle: saline) was 104 % of control; the T/C (dose: 4.0 mg/kg/injection, schedule: Q01DX005 (ip), vehicle: saline) is 108 % of control; the T/C (dose: 8.0 mg/kg/injection, schedule: Q01DX005 (ip), vehicle: saline) was 104 % of control; the T/C (dose: 16.0 mg/kg/injection, schedule: Q01DX005 (ip), vehicle: saline) was 107 % of control; the T/C (dose: 27.0 mg/kg/injection, schedule: Q#ADX018 (ip), vehicle: saline) was 99 % of control. Also, the T/C by setting is: (dose: 32.0 mg/kg/injection, schedule: Q01DX005 (ip), vehicle: saline) 101 % of control and 111 % of control; (dose: 32.0 mg/kg/injection, schedule: Q04DX003 (ip), vehicle: saline) 96 % of control; (dose: 45.0 mg/kg/injection, schedule: Q01DX009 (ip), vehicle: saline with Tween-80) 90 % of control; (dose: 45.0 mg/kg/injection, schedule: Q12HX010 (ip), vehicle: saline) 103 % of control; (dose: 45.0 mg/kg/injection, schedule: Q#A X010 (ip), vehicle: saline) 180 % of control; (dose: 45.0 mg/kg/injection, schedule: Q#ADX018 (ip), vehicle: saline) 102 % of control. Further, the T/C runs as follows: (dose: 64.0 mg/kg/injection, schedule: Q01DX005 (ip), vehicle: saline) 104 % of control and 114 % of control; (dose: 64.0 mg/kg/injection, schedule: Q04DX003 (ip), vehicle: saline) 109 % of control; (dose: 90.0 mg/kg/injection, schedule: Q01DX005 (ip), vehicle: saline) 95 % of control and 100 % of control; (dose: 90.0 mg/kg/injection, schedule: Q01DX009 (ip), vehicle: saline with Tween-80) 109 % of control; (dose: 90.0 mg/kg/injection, schedule: Q#A X010 (ip), vehicle: saline) 187 % of control; (dose: 90.0 mg/kg/injection, schedule: Q#ADX018 (ip), vehicle: saline) 95 % of control. For the same compound, the T/C is, setting by setting: (dose: 100.0 mg/kg/injection, schedule: Q12HX010 (ip), vehicle: saline) 109 % of control; (dose: 128.0 mg/kg/injection, schedule: Q01DX005 (ip), vehicle: saline) 101 % of control and 117 % of control; (dose: 128.0 mg/kg/injection, schedule: Q04DX003 (ip), vehicle: saline) 105 % of control; (dose: 180.0 mg/kg/injection, schedule: Q01DX005 (ip), vehicle: saline) 106 % of control and 110 % of control; (dose: 180.0 mg/kg/injection, schedule: Q12HX010 (ip), vehicle: saline) 107 % of control; (dose: 180.0 mg/kg/injection, schedule: Q#A X010 (ip), vehicle: saline) 172 % of control. In addition, the T/C was 110 % of control (dose: 256.0 mg/kg/injection, schedule: Q01DX005 (ip), vehicle: saline) and 114 % of control (dose: 256.0 mg/kg/injection, schedule: Q04DX003 (ip), vehicle: saline).

On to `CN1c2c(nc(N)[nH]c2=O)NCC1CCNc1ccc(C(=O)NC(CCC(=O)O)C(=O)O)cc1` (stereo not drawn), for which the T/C (dose: 50.0 mg/kg/injection, schedule: Q#ADX018 (ip), vehicle: saline) is 114 % of control; the T/C (dose: 100.0 mg/kg/injection, schedule: Q01DX009 (ip), vehicle: saline) was 111 % of control and 114 % of control; the T/C (dose: 100.0 mg/kg/injection, schedule: Q12HX018 (ip), vehicle: saline) is 122 % of control; the T/C (dose: 100.0 mg/kg/injection, schedule: Q#A X018 (ip), vehicle: saline) is 195 % of control; the T/C (dose: 100.0 mg/kg/injection, schedule: Q#ADX018 (ip), vehicle: saline) is 114 % of control; the T/C (dose: 200.0 mg/kg/injection, schedule: Q01DX009 (ip), vehicle: saline) was 105 % of control and 115 % of control. The T/C was 216 % of control (dose: 200.0 mg/kg/injection, schedule: Q#A X018 (ip), vehicle: saline); 119 % of control (dose: 200.0 mg/kg/injection, schedule: Q#ADX018 (ip), vehicle: saline); 109 % of control (dose: 400.0 mg/kg/injection, schedule: Q01DX009 (ip), vehicle: saline); 190 % of control (dose: 400.0 mg/kg/injection, schedule: Q#A X018 (ip), vehicle: saline); 121 % of control and 122 % of control (dose: 800.0 mg/kg/injection, schedule: Q01DX009 (ip), vehicle: saline); 120 % of control (dose: 1600.0 mg/kg/injection, schedule: Q01DX009 (ip), vehicle: saline).

Regarding `O=C1C(=O)c2ccccc2C(O)=C1CC=C(Cl)Cl`, the T/C (dose: 10.0 mg/kg/injection, schedule: Q01DX005 (ip), vehicle: Klucel (hydroxypropylcellulose) (HPC)) is 100 % of control and 103 % of control; the T/C (dose: 20.0 mg/kg/injection, schedule: Q01DX005 (ip), vehicle: Klucel (hydroxypropylcellulose) (HPC)) was 96 % of control and 98 % of control; the T/C (dose: 40.0 mg/kg/injection, schedule: Q01DX005 (ip), vehicle: Klucel (hydroxypropylcellulose) (HPC)) is 103 % of control and 89 % of control; the T/C (dose: 80.0 mg/kg/injection, schedule: Q01DX005 (ip), vehicle: Klucel (hydroxypropylcellulose) (HPC)) was 96 % of control and 103 % of control.

For `O=NN(CCCl)C(=O)NC1[C@H](O)CCC[C@@H]1O` (stereo partly drawn), the T/C is 236 % of control (dose: 2.59 mg/kg/injection, schedule: Q01DX005 (ip), vehicle: Klucel (hydroxypropylcellulose) (HPC)); 115 % of control (dose: 4.32 mg/kg/injection, schedule: Q01DX001 (ip), vehicle: saline); 357 % of control (dose: 4.32 mg/kg/injection, schedule: Q01DX005 (ip), vehicle: Klucel (hydroxypropylcellulose) (HPC)); 281 % of control (dose: 4.32 mg/kg/injection, schedule: Q01DX005 (ip), vehicle: saline); 357 % of control (dose: 7.2 mg/kg/injection, schedule: Q01DX005 (ip), vehicle: Klucel (hydroxypropylcellulose) (HPC)); 281 % of control (dose: 7.2 mg/kg/injection, schedule: Q01DX005 (ip), vehicle: saline). The T/C runs as follows: (dose: 12.0 mg/kg/injection, schedule: Q01DX001 (ip), vehicle: saline) 163 % of control; (dose: 12.0 mg/kg/injection, schedule: Q01DX005 (ip), vehicle: Klucel (hydroxypropylcellulose) (HPC)) 88 % of control; (dose: 20.0 mg/kg/injection, schedule: Q01DX001 (ip), vehicle: saline) 218 % of control.

With `Nc1ncnc2c1ncn2C1OC(COP(=O)(O)O)C(O)C1O` (stereo not drawn), the T/C is 100 % of control (dose: 25.0 mg/kg/injection, schedule: Q01DX005 (ip), vehicle: saline); 106 % of control and 107 % of control (dose: 50.0 mg/kg/injection, schedule: Q01DX005 (ip), vehicle: saline); 105 % of control and 112 % of control (dose: 100.0 mg/kg/injection, schedule: Q01DX005 (ip), vehicle: saline); 107 % of control and 109 % of control (dose: 200.0 mg/kg/injection, schedule: Q01DX005 (ip), vehicle: saline); 106 % of control and 112 % of control (dose: 400.0 mg/kg/injection, schedule: Q01DX005 (ip), vehicle: saline); 117 % of control (dose: 800.0 mg/kg/injection, schedule: Q01DX005 (ip), vehicle: saline).

As to `OCC1OC(n2cnc3c(SCc4ccccc4)ncnc32)C(O)C1O` (stereo not drawn), the T/C under setting [1] is 97 % of control, the T/C under setting [2] was 106 % of control and the T/C under setting [3] was 120 % of control.

The record behind these values is PubChem BioAssay AID226 (DTP/NCI, 2004).
